Data taken from patent publication US20060276340A1, “HERBICIDE COMPOSITION COMPRISING PYRIBAMBENZ-PROPYL OR PYRIBAMBENZ-ISOPROPYL” (Zhejiang Chem-Tech Group Co., Ltd., priority 2003, published 2006).

Experiments:
Type in all cases: in vivo
Alopercurus japonicus [1] = experiment: greenhouse pot test, post-emergence early stage treatment; settings: ALOJA
Procedure: (§1) The test soil is a formulated sandy loam soil. 9.5 centimeter diameter pots are used for herbicidal activity test.
(§2) The pots for post-emergence treatment are placed into a greenhouse and incubated for 7 to 9 days, and then subjected to leave treatment by spraying. The preparation liquid for the treatment prepared by mixing individual single-herbicides was diluted with water to the desired dosage.
(§3) The treated pots stood for one day, then were placed in a greenhouse and watered regularly. The herbicidal activities of the compositions were evaluated by visual examination after incubating for 14 to 21 days.
(§4) The herbicidal activities of the compositions were evaluated by plant symptoms such as stunting, deformity, chlorosis, and whitening. 0 represents that the compositions have no herbicidal effect or have safety to crops. 100 represents that the weeds or crops were completely killed.

Cerastium arvense [2] = experiment: as above
Procedure: as §1, §2, §3, §4

Galium aparine [3] = experiment: as above
Procedure: as §1, §2, §3, §4

Poa annua [4] = experiment: as above
Procedure: as §1, §2, §3, §4

Alopercurus japonicus [5] = experiment: greenhouse pot test, post-emergence treatment; settings: ALOJA
Procedure: as §1, §2, §3, §4

Galium aparine [6] = experiment: greenhouse pot test, post-emergence treatment
Procedure: as §1, §2, §3, §4

Poa annua [7] = experiment: greenhouse pot test, post-emergence treatment; settings: POAAN
Procedure: as §1, §2, §3, §4

Veronica didyma = experiment: greenhouse pot test, post-emergence treatment; settings: VERDI
Procedure: as §1, §2, §3, §4

Alopecurus aequalis [8] = experiment: greenhouse pot test, pre-emergence treatment; settings: ALOAE
Procedure: as §1
(§5) The soil in the pot for the pre-emergence test was sprayed one day after planting. The preparation liquid for the treatment prepared by mixing individual single-herbicides was diluted with water to the desired dosage.
as §3, §4

Cerastium arvense [9] = experiment: greenhouse pot test, pre-emergence treatment; settings: CERAR
Procedure: as §1, §5, §3, §4

Galium aparine [10] = experiment: greenhouse pot test, pre-emergence treatment; settings: GALAP
Procedure: as §1, §5, §3, §4

Polypogon fugax [11] = experiment: greenhouse pot test, pre-emergence treatment; settings: POLFU
Procedure: as §1, §5, §3, §4

Alopecurus aequalis [12] = experiment: greenhouse pot test, post-emergence treatment; settings: ALOAE 3 leaves
Procedure: as §1, §2, §3, §4

Cerastium arvense [13] = experiment: greenhouse pot test, post-emergence treatment; settings: CERAR 6 leaves
Procedure: as §1, §2, §3, §4

Polypogon fugax [14] = experiment: greenhouse pot test, post-emergence treatment; settings: POLFU 4˜4.5 leaves
Procedure: as §1, §2, §3, §4

Beckmannia syzigachne [15] = experiment: greenhouse pot test, post-emergence early stage treatment; settings: BECSY 2˜3 leaves
Procedure: as §1, §2, §3, §4

weeds in rape field = experiment: weed control in rape field, descriptive statements
Alopecurus aequalis [16] = experiment: greenhouse pot test, Tables 1-2
Procedure: as §1, §5, §2, §3, §4

Beckmannia syzigachne [17] = experiment: greenhouse pot test, Tables 1-2; settings: BECSY 2 leaves
Procedure: as §1, §5, §2, §3, §4

Digitrria sanguinalis = experiment: greenhouse pot test, Tables 1-2; settings: DIGSA 3 leaves
Procedure: as §1, §5, §2, §3, §4

Poa annua [18] = experiment: greenhouse pot test, Tables 1-2; settings: POAAN 3 leaves
Procedure: as §1, §5, §2, §3, §4

Polypogon fugax [19] = experiment: greenhouse pot test, Tables 1-2; settings: POLFU 3-4 leaves
Procedure: as §1, §5, §2, §3, §4

## CCOCN(C(=O)CCl)c1c(C)cccc1CC [acetochlor]
Alopercurus japonicus [1]; 150 g/ha
  visual evaluation of weed effects: 60%
Alopercurus japonicus [1]; 300 g/ha
  visual evaluation of weed effects: 90%
Alopercurus japonicus [1]; 450 g/ha
  visual evaluation of weed effects: 95%
Alopercurus japonicus [1]; 600 g/ha
  visual evaluation of weed effects: 95%
Cerastium arvense [2]; CERAR, 150 g/ha
  visual evaluation of weed effects: 70%
Cerastium arvense [2]; CERAR, 300 g/ha
  visual evaluation of weed effects: 85%
Cerastium arvense [2]; CERAR, 450 g/ha
  visual evaluation of weed effects: 85%
Cerastium arvense [2]; CERAR, 600 g/ha
  visual evaluation of weed effects: 85%
Galium aparine [3]; GALAP, 150 g/ha
  visual evaluation of weed effects: 40%
Galium aparine [3]; GALAP, 300 g/ha
  visual evaluation of weed effects: 50%
Galium aparine [3]; GALAP, 450 g/ha
  visual evaluation of weed effects: 60%
Galium aparine [3]; GALAP, 600 g/ha
  visual evaluation of weed effects: 70%
Poa annua [4]; POAAN, 150 g/ha
  visual evaluation of weed effects: 70%
Poa annua [4]; POAAN, 300 g/ha
  visual evaluation of weed effects: 90%
Poa annua [4]; POAAN, 450 g/ha
  visual evaluation of weed effects: 95%
Poa annua [4]; POAAN, 600 g/ha
  visual evaluation of weed effects: 95%

## O=C(O)Cn1c(=O)sc2cccc(Cl)c21 [benazolin]
Alopercurus japonicus [5]; 75 g/ha
  visual evaluation of weed effects: 0%
Alopercurus japonicus [5]; 150 g/ha
  visual evaluation of weed effects: 0%
Alopercurus japonicus [5]; 225 g/ha
  visual evaluation of weed effects: 0%
Alopercurus japonicus [5]; 300 g/ha
  visual evaluation of weed effects: 0%
Galium aparine [6]; GALAP, 75 g/ha
  visual evaluation of weed effects: 70%
Galium aparine [6]; GALAP, 150 g/ha
  visual evaluation of weed effects: 90%
Galium aparine [6]; GALAP, 225 g/ha
  visual evaluation of weed effects: 100%
Galium aparine [6]; GALAP, 300 g/ha
  visual evaluation of weed effects: 100%
Poa annua [7]; 75 g/ha
  visual evaluation of weed effects: 0%
Poa annua [7]; 150 g/ha
  visual evaluation of weed effects: 0%
Poa annua [7]; 225 g/ha
  visual evaluation of weed effects: 0%
Poa annua [7]; 300 g/ha
  visual evaluation of weed effects: 0%
Veronica didyma; 75 g/ha
  visual evaluation of weed effects: 60%
Veronica didyma; 150 g/ha
  visual evaluation of weed effects: 90%
Veronica didyma; 225 g/ha
  visual evaluation of weed effects: 98%
Veronica didyma; 300 g/ha
  visual evaluation of weed effects: 100%

## CCOc1nc(NC)nc(NC(=O)NS(=O)(=O)c2ccccc2C(=O)O)n1 [ethametsulfuron]
Alopecurus aequalis [8]; 6 g/ha
  visual evaluation of weed effects: 80%
Alopecurus aequalis [8]; 7.5 g/ha
  visual evaluation of weed effects: 90%
Alopecurus aequalis [8]; 9 g/ha
  visual evaluation of weed effects: 95%
Cerastium arvense [9]; 6 g/ha
  visual evaluation of weed effects: 85%
Cerastium arvense [9]; 7.5 g/ha
  visual evaluation of weed effects: 90%
Cerastium arvense [9]; 9 g/ha
  visual evaluation of weed effects: 95%
Galium aparine [10]; 6 g/ha
  visual evaluation of weed effects: 10%
Galium aparine [10]; 7.5 g/ha
  visual evaluation of weed effects: 40%
Galium aparine [10]; 9 g/ha
  visual evaluation of weed effects: 70%
Polypogon fugax [11]; 6 g/ha
  visual evaluation of weed effects: 60%
Polypogon fugax [11]; 7.5 g/ha
  visual evaluation of weed effects: 70%
Polypogon fugax [11]; 9 g/ha
  visual evaluation of weed effects: 75%
Alopecurus aequalis [12]; 6 g/ha
  visual evaluation of weed effects: 90%
Alopecurus aequalis [12]; 7.5 g/ha
  visual evaluation of weed effects: 90%
Alopecurus aequalis [12]; 9 g/ha
  visual evaluation of weed effects: 90%
Cerastium arvense [13]; 6 g/ha
  visual evaluation of weed effects: 90%
Cerastium arvense [13]; 7.5 g/ha
  visual evaluation of weed effects: 90%
Cerastium arvense [13]; 9 g/ha
  visual evaluation of weed effects: 90%
Galium aparine [6]; GALAP 7˜8 leaves, 6 g/ha
  visual evaluation of weed effects: 85%
Galium aparine [6]; GALAP 7˜8 leaves, 7.5 g/ha
  visual evaluation of weed effects: 90%
Galium aparine [6]; GALAP 7˜8 leaves, 9 g/ha
  visual evaluation of weed effects: 90%
Polypogon fugax [14]; 6 g/ha
  visual evaluation of weed effects: 60%
Polypogon fugax [14]; 7.5 g/ha
  visual evaluation of weed effects: 60%
Polypogon fugax [14]; 9 g/ha
  visual evaluation of weed effects: 70%
Beckmannia syzigachne [15]; ethametsulfuron 6 g/ha
  visual evaluation of weed effects: 40%
Beckmannia syzigachne [15]; ethametsulfuron 9 g/ha
  visual evaluation of weed effects: 40%
Cerastium arvense [2]; CERAR 3˜4 leaves, ethametsulfuron 6 g/ha
  visual evaluation of weed effects: 90%
Cerastium arvense [2]; CERAR 3˜4 leaves, ethametsulfuron 9 g/ha
  visual evaluation of weed effects: 90%
Galium aparine [3]; GALAP 7˜8 leaves, ethametsulfuron 6 g/ha
  visual evaluation of weed effects: 90%
Galium aparine [3]; GALAP 7˜8 leaves, ethametsulfuron 9 g/ha
  visual evaluation of weed effects: 90%
Poa annua [4]; POAAN 2˜3 leaves, ethametsulfuron 6 g/ha
  visual evaluation of weed effects: 70%
Poa annua [4]; POAAN 2˜3 leaves, ethametsulfuron 9 g/ha
  visual evaluation of weed effects: 80%
Weeds in rape field; grass weeds
  weed control: rather moderate control
Weeds in rape field; most of broadleaf weeds
  weed control: remarkable control

## CCOC(=O)C(C)Oc1ccc(Oc2cnc3cc(Cl)ccc3n2)cc1 (stereo not drawn) [quizalofop-ethyl]
Alopecurus aequalis [16]; ALOAE 0 leaf, 6 g/ha
  visual evaluation of weed effects: 85%
Alopecurus aequalis [16]; ALOAE 0 leaf, 9 g/ha
  visual evaluation of weed effects: 85%
Alopecurus aequalis [16]; ALOAE 0 leaf, 12 g/ha
  visual evaluation of weed effects: 85%
Alopecurus aequalis [16]; ALOAE 0 leaf, 15 g/ha
  visual evaluation of weed effects: 85%
Alopecurus aequalis [16]; ALOAE 3 leaves, 6 g/ha
  visual evaluation of weed effects: 98%
Alopecurus aequalis [16]; ALOAE 3 leaves, 9 g/ha
  visual evaluation of weed effects: 100%
Alopecurus aequalis [16]; ALOAE 3 leaves, 12 g/ha
  visual evaluation of weed effects: 100%
Alopecurus aequalis [16]; ALOAE 3 leaves, 15 g/ha
  visual evaluation of weed effects: 100%
Beckmannia syzigachne [17]; 6 g/ha
  visual evaluation of weed effects: 95%
Beckmannia syzigachne [17]; 9 g/ha
  visual evaluation of weed effects: 95%
Beckmannia syzigachne [17]; 12 g/ha
  visual evaluation of weed effects: 98%
Beckmannia syzigachne [17]; 15 g/ha
  visual evaluation of weed effects: 98%
Digitrria sanguinalis; 6 g/ha
  visual evaluation of weed effects: 100%
Digitrria sanguinalis; 9 g/ha
  visual evaluation of weed effects: 100%
Digitrria sanguinalis; 12 g/ha
  visual evaluation of weed effects: 100%
Digitrria sanguinalis; 15 g/ha
  visual evaluation of weed effects: 100%
Poa annua [18]; 6 g/ha
  visual evaluation of weed effects: 0%
Poa annua [18]; 9 g/ha
  visual evaluation of weed effects: 10%
Poa annua [18]; 12 g/ha
  visual evaluation of weed effects: 10%
Poa annua [18]; 15 g/ha
  visual evaluation of weed effects: 10%
Polypogon fugax [19]; 6 g/ha
  visual evaluation of weed effects: 30%
Polypogon fugax [19]; 9 g/ha
  visual evaluation of weed effects: 100%
Polypogon fugax [19]; 12 g/ha
  visual evaluation of weed effects: 100%
Polypogon fugax [19]; 15 g/ha
  visual evaluation of weed effects: 100%
Beckmannia syzigachne [15]; quizalofop-ethyl 6 g/ha
  visual evaluation of weed effects: 98%
Beckmannia syzigachne [15]; quizalofop-ethyl 9 g/ha
  visual evaluation of weed effects: 100%
Beckmannia syzigachne [15]; quizalofop-ethyl 12 g/ha
  visual evaluation of weed effects: 100%
Beckmannia syzigachne [15]; quizalofop-ethyl 15 g/ha
  visual evaluation of weed effects: 100%
Cerastium arvense [2]; CERAR 3˜4 leaves, quizalofop-ethyl 6 g/ha
  visual evaluation of weed effects: 0%
Cerastium arvense [2]; CERAR 3˜4 leaves, quizalofop-ethyl 9 g/ha
  visual evaluation of weed effects: 0%
Cerastium arvense [2]; CERAR 3˜4 leaves, quizalofop-ethyl 12 g/ha
  visual evaluation of weed effects: 0%
Cerastium arvense [2]; CERAR 3˜4 leaves, quizalofop-ethyl 15 g/ha
  visual evaluation of weed effects: 0%
Galium aparine [3]; GALAP 7˜8 leaves, quizalofop-ethyl 6 g/ha
  visual evaluation of weed effects: 0%
Galium aparine [3]; GALAP 7˜8 leaves, quizalofop-ethyl 9 g/ha
  visual evaluation of weed effects: 0%
Galium aparine [3]; GALAP 7˜8 leaves, quizalofop-ethyl 12 g/ha
  visual evaluation of weed effects: 0%
Galium aparine [3]; GALAP 7˜8 leaves, quizalofop-ethyl 15 g/ha
  visual evaluation of weed effects: 0%
Poa annua [4]; POAAN 2˜3 leaves, quizalofop-ethyl 6 g/ha
  visual evaluation of weed effects: 0%
Poa annua [4]; POAAN 2˜3 leaves, quizalofop-ethyl 9 g/ha
  visual evaluation of weed effects: 0%
Poa annua [4]; POAAN 2˜3 leaves, quizalofop-ethyl 12 g/ha
  visual evaluation of weed effects: 50%
Poa annua [4]; POAAN 2˜3 leaves, quizalofop-ethyl 15 g/ha
  visual evaluation of weed effects: 60%
Weeds in rape field; Poa annua
  weed control: weak activity
Weeds in rape field; most of grasses, even herbicide-resistant sclerochloa kengiana and Beckmannia syzigachne
  weed control: excellent control
